Measured values: US5426111A, “[Alkoxy-, alkenyloxy-, alkynyloxy-, and phenylmethyloxyalkoxycycloalkyl or alkoxycycloheteroalkyl]naphtho[2,3-c]furan-1(3H)-one inhibitors of 5-lipoxygenase” (Abbott Laboratories, priority 1994, dated 1995)

Test system: LTB4 biosynthesis
Assay: Calcium ionophore-induced LTB4 biosynthesis in human whole blood
Format: cell-based
Settings: @ 100 nm; human heparinized whole blood, calcium ionophore A23187 challenge, LTB4 by radioimmunoassay
Description: Inhibition of leukotriene biosynthesis was evaluated in an assay, involving calcium ionophore-induced LTB4 biosynthesis expressed human whole blood. Human heparinized whole blood was preincubated with test compounds or vehicle for 15 min at 37° C. followed by calcium ionophore A23 187 challenge (final concentration of 8.3 μM) and the reaction terminated after 30 min by adding two volumes of methanol containing prostaglandin B2 as an internal recovery standard. The methanol extract was analyzed for LTB4 using a commercially available radioimmunoassay.

COC1(/C=C/COc2ccc3c(-c4ccc(F)cc4)c4c(cc3c2)C(=O)OC4)CCOCC1 [Example 1, 4-(4-fluorophenyl)-7-[3-(4-methoxytetrahydro-2H-pyran-4-yl)-2-propenyloxy]naptho[2,3-c]furan-1(3H)-one]
inhibition of leukotriene biosynthesis: 55%
